Converted amounts (≈) assume the structure as drawn.
Columns and labels:
[1] = system: Staphylococcus aureus; experiment: In vivo efficacy in systemic infection due to Staphylococcus aureus Smith (A 9537) in mice; type: functional; conditions: read-out: PD50
[2] = Lethal dose of compound in OF1-strain female swiss mice after oral administration; type: toxicity, organism-based; conditions: mouse, in vivo
[3] = system: Escherichia coli; experiment: In vitro antibacterial activity against Escherichia coli (A 15119); type: functional
[4] = Half-life in plasma after oral administration in dog (25 mg/kg); type: ADME, organism-based, Canis lupus familiaris
[5] = system: Pseudomonas aeruginosa; experiment: In vivo efficacy in systemic infection due to Pseudomonas aeruginosa (A 9843) in mice; type: functional; conditions: read-out: PD50
[6] = system: Klebsiella pneumoniae; experiment: In vitro antibacterial activity against Klebsiella pneumoniae (A 9664); type: functional
[7] = Maximum concentration in plasma after oral administration in dog (25 mg/kg); type: ADME, organism-based, Canis lupus familiaris; parameters: dose 25 mg/kg, route oral
[8] = system: Staphylococcus aureus; experiment: In vitro antibacterial activity against Staphylococcus aureus Smith (A9537); type: functional
[9] = system: Escherichia coli; experiment: In vivo efficacy in systemic infection due to Escherichia coli (A 15119) in mice; type: functional; conditions: read-out: PD50
[10] = system: Enterobacter cloacae; experiment: In vitro antibacterial activity against Enterobacter cloacae (A 9656); type: functional
[11] = system: Morganella morganii; experiment: In vitro antibacterial activity against M. morganii(A 15153); type: functional
[12] = Urinary recovery after 24 hr in plasma after oral administration in dog (25 mg/kg); type: ADME, organism-based, Canis lupus familiaris; conditions: urine, read-out: UR
[13] = system: Canis familiaris; experiment: Area under the concentration/ time in plasma after oral administration in dog (25 mg/kg); type: ADME, organism-based, Canis lupus familiaris; conditions: in vivo
[14] = system: Pseudomonas aeruginosa; experiment: In vitro antibacterial activity against Pseudomonas aeruginosa (A 9843); type: functional
[15] = system: Klebsiella pneumoniae; experiment: In vivo efficacy in systemic infection due to Klebsiella pneumoniae (A 9664) in mice; type: functional; conditions: read-out: PD50
[16] = system: Morganella morganii; experiment: In vitro antibacterial activity against Morganella morganii (A 15153); type: functional
[17] = Escherichia coli, read-out: MIC
[18] = Klebsiella pneumoniae, read-out: MIC
[19] = Staphylococcus aureus, read-out: MIC
[20] = Enterobacter cloacae, read-out: MIC
[21] = Pseudomonas aeruginosa, read-out: MIC
[22] = Morganella morganii, read-out: MIC

CC(C)(C)n1cc(C(=O)O)c(=O)c2cc(F)c(N3CCNCC3)nc21
ED50 [1]: 1.1 mg/kg
LD50 [2]: > 2500 mg/kg
MIC [3, 17]: 0.015 µg/mL (≈ 0.0431 µM)
half-life [4]: 4.8 h
ED50 [5]: 12 mg/kg
MIC [6, 18]: 0.13 µg/mL (≈ 0.373 µM)
Cmax [7]: 5800 ng/mL
MIC [8, 19]: 0.06 µg/mL (≈ 0.172 µM)
ED50 [9]: 2.4 mg/kg
MIC [10, 20]: 0.06 µg/mL (≈ 0.172 µM)
MIC [11]: 0.25 µg/mL (≈ 0.718 µM)
dose excreted at 24 h [12]: 12%
AUC [13]: 50 µg/mL
MIC [14, 21]: 1 µg/mL (≈ 2.87 µM)
ED50 [15]: 5 mg/kg

O=C(O)c1cn(Cc2ccccc2)c2cc(N3CCNCC3)c(F)cc2c1=O
MIC [3, 17]: 0.25 µg/mL (≈ 0.655 µM)
MIC [6, 18]: 0.5 µg/mL (≈ 1.31 µM)
MIC [8, 19]: 0.5 µg/mL (≈ 1.31 µM)
MIC [16, 22]: 4 µg/mL (≈ 10.5 µM)
MIC [10, 20]: 0.5 µg/mL (≈ 1.31 µM)
MIC [14, 21]: 0.5 µg/mL (≈ 1.31 µM)

O=C(O)c1cn(C2CC2)c2cc(N3CCNCC3)c(F)cc2c1=O [CIPROFLOXACIN]
ED50 [1]: 4 mg/kg
ED50 [5]: 5 mg/kg
MIC [6, 18]: 0.03 µg/mL (≈ 0.0905 µM)
Cmax [7]: 3000 ng/mL
MIC [8, 19]: 0.13 µg/mL (≈ 0.392 µM)
MIC [16, 22]: 0.015 µg/mL (≈ 0.0453 µM)
ED50 [9]: 0.7 mg/kg
dose excreted at 24 h [12]: 17%
AUC [13]: 20 µg/mL
MIC [14, 21]: 0.13 µg/mL (≈ 0.392 µM)
ED50 [15]: 1.5 mg/kg

O=C(O)c1cn(C2CC=CC2)c2cc(N3CCNCC3)c(F)cc2c1=O
MIC [3, 17]: 1 µg/mL (≈ 2.8 µM)
MIC [6, 18]: 1 µg/mL (≈ 2.8 µM)
MIC [8, 19]: 2 µg/mL (≈ 5.6 µM)
MIC [16, 22]: 8 µg/mL (≈ 22.4 µM)
MIC [10, 20]: 8 µg/mL (≈ 22.4 µM)
MIC [14, 21]: 8 µg/mL (≈ 22.4 µM)

CC(C)(C)n1cc(C(=O)O)c(=O)c2cc(F)c(N3CCNCC3)cc21
ED50 [1]: 8 mg/kg
LD50 [2]: > 2500 mg/kg
MIC [3, 17]: 0.06 µg/mL (≈ 0.173 µM)
half-life [4]: 4.4 h
ED50 [5]: 18 mg/kg
MIC [6, 18]: 0.13 µg/mL (≈ 0.374 µM)
Cmax [7]: 6400 ng/mL
MIC [8, 19]: 0.06 µg/mL (≈ 0.173 µM)
MIC [16, 22]: 0.25 µg/mL (≈ 0.72 µM)
MIC [10, 20]: 0.13 µg/mL (≈ 0.374 µM)
dose excreted at 24 h [12]: 17%
AUC [13]: 50 µg/mL
MIC [14, 21]: 0.5 µg/mL (≈ 1.44 µM)

CC(c1ccccc1)n1cc(C(=O)O)c(=O)c2cc(F)c(N3CCNCC3)cc21 (stereo unspecified)
MIC [3, 17]: 2 µg/mL (≈ 5.06 µM)
MIC [6, 18]: 4 µg/mL (≈ 10.1 µM)
MIC [8, 19]: 4 µg/mL (≈ 10.1 µM)
MIC [16, 22]: 16 µg/mL (≈ 40.5 µM)
MIC [10, 20]: 4 µg/mL (≈ 10.1 µM)
MIC [14, 21]: 32 µg/mL (≈ 80.9 µM)

CC1CC1n1cc(C(=O)O)c(=O)c2cc(F)c(N3CCNCC3)cc21 (stereo in doubt; 12)
MIC [3]: 0.06 µg/mL (≈ 0.174 µM)
MIC [6]: 2 µg/mL (≈ 5.79 µM)
MIC [8]: 1 µg/mL (≈ 2.9 µM)
MIC [16]: 1 µg/mL (≈ 2.9 µM)
MIC [10]: 0.13 µg/mL (≈ 0.376 µM)
MIC [14]: 2 µg/mL (≈ 5.79 µM)

O=C(O)c1cn(-c2ccc(F)cc2)c2cc(N3CCNCC3)c(F)cc2c1=O [SARAFLOXACIN]
MIC [3, 17]: 0.05 µg/mL (≈ 0.13 µM)
MIC [6, 18]: 0.02 µg/mL (≈ 0.0519 µM)
MIC [8, 19]: 0.2 µg/mL (≈ 0.519 µM)
MIC [14, 21]: 0.39 µg/mL (≈ 1.01 µM)

CC(C)n1cc(C(=O)O)c(=O)c2cc(F)c(N3CCNCC3)nc21
MIC [3, 17]: 0.25 µg/mL (≈ 0.748 µM)
MIC [6, 18]: 1 µg/mL (≈ 2.99 µM)
MIC [8, 19]: 2 µg/mL (≈ 5.98 µM)
MIC [16, 22]: 1 µg/mL (≈ 2.99 µM)
MIC [10, 20]: 0.5 µg/mL (≈ 1.5 µM)
MIC [14, 21]: 4 µg/mL (≈ 12 µM)

CC1CCC1n1cc(C(=O)O)c(=O)c2cc(F)c(N3CCNCC3)cc21 (stereo unspecified)
MIC [3, 17]: 2 µg/mL (≈ 5.56 µM)
MIC [6, 18]: 4 µg/mL (≈ 11.1 µM)
MIC [8, 19]: 4 µg/mL (≈ 11.1 µM)
MIC [16, 22]: 16 µg/mL (≈ 44.5 µM)
MIC [10, 20]: 32 µg/mL (≈ 89 µM)
MIC [14, 21]: 32 µg/mL (≈ 89 µM)

CC1CC1n1cc(C(=O)O)c(=O)c2cc(F)c(N3CCNCC3)cc21 (stereo in doubt; 13)
MIC [3]: 0.13 µg/mL (≈ 0.376 µM)
MIC [6, 18]: 1 µg/mL (≈ 2.9 µM)
MIC [8]: 0.13 µg/mL (≈ 0.376 µM)
MIC [16]: 0.25 µg/mL (≈ 0.724 µM)
MIC [10]: 0.5 µg/mL (≈ 1.45 µM)
MIC [14, 21]: 1 µg/mL (≈ 2.9 µM)

O=C(O)c1cn(CC2CC2)c2cc(N3CCNCC3)c(F)cc2c1=O
MIC [3, 17]: 0.5 µg/mL (≈ 1.45 µM)
MIC [6, 18]: 2 µg/mL (≈ 5.79 µM)
MIC [8, 19]: 1 µg/mL (≈ 2.9 µM)
MIC [16, 22]: 1 µg/mL (≈ 2.9 µM)
MIC [10, 20]: 4 µg/mL (≈ 11.6 µM)
MIC [14, 21]: 4 µg/mL (≈ 11.6 µM)

O=C(O)c1cn(-c2ccc(F)cc2)c2nc(N3CCNCC3)c(F)cc2c1=O
MIC [3, 17]: 0.05 µg/mL (≈ 0.129 µM)
MIC [6, 18]: 0.1 µg/mL (≈ 0.259 µM)
MIC [8, 19]: 0.39 µg/mL (≈ 1.01 µM)
MIC [14, 21]: 0.39 µg/mL (≈ 1.01 µM)

O=C(O)c1cn(C2CCC2)c2cc(N3CCNCC3)c(F)cc2c1=O
MIC [3, 17]: 0.13 µg/mL (≈ 0.376 µM)
MIC [6, 18]: 0.13 µg/mL (≈ 0.376 µM)
MIC [8, 19]: 0.5 µg/mL (≈ 1.45 µM)
MIC [16, 22]: 0.5 µg/mL (≈ 1.45 µM)
MIC [10, 20]: 1 µg/mL (≈ 2.9 µM)
MIC [14, 21]: 1 µg/mL (≈ 2.9 µM)

— ChEMBL document CHEMBL1124630, “Fluoronaphthyridines and quinolones as antibacterial agents. 1. Synthesis and structure-activity relationships of new 1-substituted derivatives” (J Med Chem, 1989)
